Reference: patent publication US9616075B2, “Method of treating and preventing brain impairment using Na+-K+-2Cl-cotransporter isoform 1 inhibitors” (University of Rochester, priority 2012, dated 2017)
Read-outs that look alike come from different tables or passages of the source.

How the values were obtained:
[1] = test system: cortical inhibitory networks; assay: Paired-pulse whisker stimulation (paired-pulse ratio, cortical inhibitory function) in awake mice; type: in vivo, mouse; settings: for Paired-pulse ratio (PPR): awake mice
Method: (§1) Recordings were analyzed offline using pClamp 10.2.
Next, it was investigated how cortical ammonia toxicity leads to neurological dysfunction and seizures. […] Neurobiol. […] The whisker stimulation paradigm elicits two successive field excitatory post-synaptic potentials (fEPSP), where the second fEPSP has lower amplitude due to activation of cortical inhibitory networks (quantified by a paired-pulse ratio (PPR)<1).

[2] = test system: Otc^spf-ash mice; assay: Sensory-motor phenotype score; type: in vivo, mouse; settings: Otc^spf-ash mice after systemic NH4Cl load 7.5 mmol kg^−1; bumetanide 30 mg kg^−1 i.p.
Method: Mouse movement and seizure activity were omitted from this score, because it was desired that these manifestations be independently and more quantitatively represented. The score thus consisted of four elements: hyperacusis (0-2), imbalance (0-3), ataxia/tremor (0-3) and level of consciousness (0-3). A maximum score of 11 represents deep coma (no corneal reflex) whilst 0 represents normal wakefulness. Each animal was scored after the first 5 minutes and then every 15 minutes as they progressed through the stereotypical stages of ammonia neurotoxicity. […] Ataxia/tremor was scored using a gait test, where the mouse was encouraged to walk for a short distance. […] Consciousness was scored as either 0 for awake, 1 loss of scatter reflex, 2 loss of righting reflex (LORR), 3 loss of corneal reflex.

[3] = test system: pyramidal neurons; assay: Whole-cell voltage clamp with ramp voltage and GABA application in acute cortical slices (EGABA); type: cell-based, mouse
Excerpt: (§3) Electrophysiological Recordings—In vivo recordings were obtained from layer II somatosensory cortex. In situ recordings were obtained from layer II in coronal cortical slices prepared from P21-30 mice. ISMs of K^+ and NH4^+ were pulled from double-barreled pipette glass (PB150-6, WPI) with a tip of 1-3 μm. The pipettes were silanized (coated) with dimethylsilane I (Fluka, Sigma) and filled with either K^+ ionophore I cocktail B (Fluka, selectivity coefficient −1.8 log(K^+/NH4^+)) or NH4+ ionophore I cocktail B (Fluka, −0.9 log(NH4^+/K^+)). […] Ion-sensitive microelectrode (ISM) signals were amplified (FD223a by WPI), externally filtered and digitized as above, and reference field potential traces were subtracted. […] Recordings were analyzed offline using pClamp 10.2.
(§4) In Situ Electrophysiology—Coronal cortical slices were prepared from P21-30 mice, as described previously. […] All experiments were performed at 32-35° C. […] Whole-cell patch-clamp recordings were done using electrodes with 3-5 M106 resistance, and an intracellular solution containing 135 mM K-methylsulfate, 10 mM KCl, 10 mM hepes, 5 mM NaCl, 2.5 mM Mg-ATP, 0.3 mM Na-GTP (pH 7.3), containing Alexa Fluor® 350 (Invitrogen). Signals were low-pass filtered at 2 kHz and digitized at 10 kHz using Axopatch MultiClamp 700A and Digidata 1320A (Axon Instruments).

[4] = test system: Otc^spf-ash mice; assay: NH4+ and K+ ion-sensitive microelectrode (ISM) recordings from cortex of awake mice; settings: mean±SEM
Method: Body temperature was maintained with a heating pad. For systemic drug treatment, a polyethylene intraperitoneal (i.p.) catheter was surgically implanted to deliver drugs accurately and with minimal manipulation. For cortical drug application artificial cerebrospinal fluid (aCSF) was perfused across the cortex of awake mice at a rate of 2 mL/minute, into a custom-made well with ˜200 μL volume, through tubing with ˜100 μL volume, meaning the entire volume bathing the brain was exchanged approximately every 9 seconds.
Electrophysiological Recordings—In vivo recordings were obtained from layer II somatosensory cortex. […] ISMs of K^+ and NH4^+ were pulled from double-barreled pipette glass (PB150-6, WPI) with a tip of 1-3 μm. The pipettes were silanized (coated) with dimethylsilane I (Fluka, Sigma) and filled with either K^+ ionophore I cocktail B (Fluka, selectivity coefficient −1.8 log(K^+/NH4^+)) or NH4+ ionophore I cocktail B (Fluka, −0.9 log(NH4^+/K^+)). […] Ion-sensitive microelectrode (ISM) signals were amplified (FD223a by WPI), externally filtered and digitized as above, and reference field potential traces were subtracted.
Ion Sensitive Microelectrode (ISM) Fabrication—Ion Sensitive Microelectrodes (ISMs) of K^+ and NH4^+ were pulled from double-barreled pipette glass (PB150-6, WPI) with a tip of 1-3 μm. The pipettes were silanized (coated) with dimethylsilane I (Fluka, Sigma). […] The K^+ ionophore has a selectivity coefficient relative to NH4^+ of −1.8 log (K^+/NH4^+), and the NH4^+ ionophore has a selectivity coefficient relative to K^+ of −0.9 log (NH4^+/K^+). […] The reference barrels were used to record the DC potentials and were filled with 0.15 M NaCl. In selected experiments, single barrel electrodes were also used in combination with single reference electrodes. K^+ and NH4^+ ISM traces were subtracted for interference by calculating the mV response to the increase of the other ion in calibration solutions. All ISMs were calibrated before and after each experiment. […] Calibration data were fitted to the Nikolsky equation to determine electrode slope and interference.

[5] = test system: astrocytes; settings: n = 52 cells, mean±SEM; for Astrocyte calcium transient Freq.: awake Otc^spf-ash mice, 100 μm below pial surface
Excerpt: Body temperature was maintained with a heating pad.
Two-Photon Laser Scanning Microscopy (2PLSM)—A Mai Tai laser (SpectraPhysics) attached to a confocal scanning system (Fluoview 300, Olympus) and an upright microscope (IX51W) was used. Briefly, volume changes and calcium activity were imaged in cortex 100 μm below the pial surface, as described previously, using a 60× (1.1 NA) and a 20× (0.95 NA) lens, respectively. For in vivo volumetry xyzt image series were collected (z-step 1.5 μm, every 5 minutes) with acquisition time<20 seconds and laser power<40 mW. For in vivo calcium imaging, dual channel (rhod-2 and eGFP) frames were collected at 0.2 or 2 Hz. A low sampling rate and <20 mW laser were used to avoid photo damage. […] Therefore, each animal was tested for optimal loading by performing whisker stimulation, to verify a physiological calcium response. Wang et al., “Astrocytic Ca^2+ Signalling Evoked by Sensory Stimulation In Vivo,” Nat. Neurosci. 9:816-823 (2006), which is hereby incorporated by reference in its entirety. A calcium transient was defined as an event where the relative ratio between the rhod-2 and eGFP signal intensities (ΔF/F0) was >2 standard deviations […] from baseline. Beginning and end were defined as ΔF/F0>0.5 π and <0.5 π respectively. Amplitude was taken as the peak ΔF/F0 in this interval. For in situ volumentric imaging acute cortical slices were loaded with texas red hydrazide (1.5 μM, a fixable sulforhodamine 101 derivative) in aCSF for 50 minutes. Volume and calcium recordings were analyzed using previously described custom-made software (MatLab Inc.).
Data in Table 2 is from analysis of 2PLSM xyt series, where calcium indicator rhod-2 was used to detect astrocyte calcium transients 100 μm below the pial surface. Data are shown as mean±SEM.

[6] = test system: Otc^spf-ash mice; assay: Automated video analysis of spontaneous mouse movement; type: in vivo; settings: Otc^spf-ash mice after systemic NH4Cl load 7.5 mmol kg^−1; bumetanide 30 mg kg^−1 i.p.
Method: Otc^spf-ash mice were crossed with Glt-1-eGFP mice for imaging experiments. C57BL/6J mouse and Wistar rat pups were obtained from Jackson Laboratories. To analyze cognitive abilities in OTC mice, two commercial conditioning chambers (H10-11M-TC, Coulbourn Instruments) were adapted for contextual fear conditioning. Over the course of 4 days, mice were trained via a tone/shock protocol and trained to fear contextual and auditory cues. […] Automated movement analysis was performed using AnyMazeTM software analysis of CCD-camera recordings in a standard mouse cage.

[7] = 1H-NMR brain amino acid concentrations; type: in vivo, mouse; settings: 30 minutes after administration, mean±SEM
Method: ^1H-NMR Spectroscopy—Mice were anesthetized using 1.5% isoflurane and decapitated. Forebrains (whole brain minus cerebellum/brainstem) were quickly extracted, frozen in liquid nitrogen, and homogenized in 7.5 mL 12% PCA at 0° C. using a micro-sonicator. The homogenate was centrifuged at 25,000 G for 15 minutes, and the supernatants were neutralized to pH 7.0 with KOH over an ice bath. A further 15 minute centrifugation (25,000 G) separated the resultant KClO4, and the supernatant was lyophilized before being reconstituted with 0.65 ml D2O. ^1H-NMR spectra were acquired using a 600 mHz Varian Unity NOVA spectrometer equipped with a triple-axis gradient HCN probe (standard room temperature). Signals were acquired following a 90° pulse with a spectral width of 7200 Hz and 32K data points. The time between pulses was 15 seconds and 64 signals were averaged for each spectrum. The sample temperature was 25° C. Integrals of the relevant peaks were converted to μmol/gram wet-weight and normalized NAA (methyl) to increase inter-sample consistency.

[8] = Otc^spf-ash mice after 7.5 mmol kg^−1 i.p. ammonia load (baseline 0.32±0.07)
Method: Biochemical and Hemodynamic Analysis—Plasma ammonia analysis was performed on blood samples collected using 50 μL heparinized tubes from the femoral artery. A L-glutamate dehydrogenase based kit (Sigma) was used for the quantification of ammonia in plasma.

[9] = test system: awake mice; assay: Myoclonic event (ME) frequency on EEG in awake mice; type: in vivo, mouse
Excerpt: Electrophysiological Recordings—In vivo recordings were obtained from layer II somatosensory cortex. In situ recordings were obtained from layer II in coronal cortical slices prepared from P21-30 mice. ISMs of K^+ and NH4^+ were pulled from double-barreled pipette glass (PB150-6, WPI) with a tip of 1-3 μm. The pipettes were silanized (coated) with dimethylsilane I (Fluka, Sigma) and filled with either K^+ ionophore I cocktail B (Fluka, selectivity coefficient −1.8 log(K^+/NH4^+)) or NH4+ ionophore I cocktail B (Fluka, −0.9 log(NH4^+/K^+)). […] Electroencephalogram (EEG) signals were externally filtered at 6 Hz (Filter Butterworth Model by Encore, Axopatch 200B by Axon Instruments), band pass filtered at 1-100 Hz and digitized (Digidata 1440A by Axon Instruments). Ion-sensitive microelectrode (ISM) signals were amplified (FD223a by WPI), externally filtered and digitized as above, and reference field potential traces were subtracted. In selected experiments, wireless electromyogram (EMG) and electroencephalogram (EEG) electrodes were implanted (DSI Physiotel®), and an extracellular microelectrode was placed in the thalamus (ventrobasal complex). Recordings were analyzed offline using pClamp 10.2. Myoclonic events (ME) were defined on the EEG as single or multiple 3-9 Hz polyspike and wave discharges (SWD) of 0.2-2 second duration associated with myoclonic jerks determined by video recording, EMG or direct observation.

[10] = test system: Na^+—K^+-ATPase (NKA)
Method: Cell Culture Assays—Cultured neocortical astrocytes were prepared from P1-2 mouse and rat pups as previously described. Wang et al., “Astrocytes Modulate Neural Network Activity by Ca(2)(+)-Dependent Uptake of Extracellular K(+),” Science Signaling 5:ra26 (2012); Lin et al., “Gap-Junction-Mediated Propagation and Amplification of Cell Injury,” Nat. Neurosci. 1:494-500 (1998), which are hereby incorporated by reference in their entirety. For ^86Rb^+ experiments the cultures were incubated for 10 minutes±ouabain (1 mM). The potassium analogue ^86Rb^+ was then added to each well plate for 15 minutes (1 μCi, Perkin Elmer). The reaction was stopped by placing the cells on ice and washed with ice-cold aCSF. The cells were lysed and ^86Rb^+ uptake quantified by liquid scintillation counting (Beckman Coulter). For Na^+—K^+-ATPase activity, astrocyte cultures were utilized as previously described, and enzyme activity was quantified using the malachite green reaction (Sigma) and analyzed using spectrophotometry. Anupama et al. “Comparison of Na—K ATPase Activity in Rat Brain Synaptosome Under Various Conditions,” Neurochem. Int. 33:283-286 (1998), which is hereby incorporated by reference in its entirety.

[11] = test system: NKCC1; settings: NKCC1 knock-out Slc12a2^−/−
Method: as §1
(§2) Because EGABA is heavily dependent on chloride transporters, the diuretic bumetanide was next tested, a highly specific NKCC1 inhibitor used in clinical practice to treat heart failure. Hannaert et al., “Rat NKCC2/NKCC1 Cotransporter Selectivity For Loop Diuretic Drugs,” Naunyn Schmiedebergs Arch. Pharmacol. 365:193-199 (2002); Dzhala et al., “NKCC1 Transporter Facilitates Seizures in the Developing Brain,” Nat. […] To ensure the molecular specificity of bumetanide, gramicidin-perforated patch recordings were also performed in conditional NKCC1 knock-out (Slc12a2^−/−) and wild-type littermates (Slc12a2′^+/+).

[12] = target: NKCC1 (Mus musculus, UniProt P55012); settings: wild-type Slc12a2^+/+
NKCC1 (Mus musculus, UniProt P55012), sequence (P55012 whole entry): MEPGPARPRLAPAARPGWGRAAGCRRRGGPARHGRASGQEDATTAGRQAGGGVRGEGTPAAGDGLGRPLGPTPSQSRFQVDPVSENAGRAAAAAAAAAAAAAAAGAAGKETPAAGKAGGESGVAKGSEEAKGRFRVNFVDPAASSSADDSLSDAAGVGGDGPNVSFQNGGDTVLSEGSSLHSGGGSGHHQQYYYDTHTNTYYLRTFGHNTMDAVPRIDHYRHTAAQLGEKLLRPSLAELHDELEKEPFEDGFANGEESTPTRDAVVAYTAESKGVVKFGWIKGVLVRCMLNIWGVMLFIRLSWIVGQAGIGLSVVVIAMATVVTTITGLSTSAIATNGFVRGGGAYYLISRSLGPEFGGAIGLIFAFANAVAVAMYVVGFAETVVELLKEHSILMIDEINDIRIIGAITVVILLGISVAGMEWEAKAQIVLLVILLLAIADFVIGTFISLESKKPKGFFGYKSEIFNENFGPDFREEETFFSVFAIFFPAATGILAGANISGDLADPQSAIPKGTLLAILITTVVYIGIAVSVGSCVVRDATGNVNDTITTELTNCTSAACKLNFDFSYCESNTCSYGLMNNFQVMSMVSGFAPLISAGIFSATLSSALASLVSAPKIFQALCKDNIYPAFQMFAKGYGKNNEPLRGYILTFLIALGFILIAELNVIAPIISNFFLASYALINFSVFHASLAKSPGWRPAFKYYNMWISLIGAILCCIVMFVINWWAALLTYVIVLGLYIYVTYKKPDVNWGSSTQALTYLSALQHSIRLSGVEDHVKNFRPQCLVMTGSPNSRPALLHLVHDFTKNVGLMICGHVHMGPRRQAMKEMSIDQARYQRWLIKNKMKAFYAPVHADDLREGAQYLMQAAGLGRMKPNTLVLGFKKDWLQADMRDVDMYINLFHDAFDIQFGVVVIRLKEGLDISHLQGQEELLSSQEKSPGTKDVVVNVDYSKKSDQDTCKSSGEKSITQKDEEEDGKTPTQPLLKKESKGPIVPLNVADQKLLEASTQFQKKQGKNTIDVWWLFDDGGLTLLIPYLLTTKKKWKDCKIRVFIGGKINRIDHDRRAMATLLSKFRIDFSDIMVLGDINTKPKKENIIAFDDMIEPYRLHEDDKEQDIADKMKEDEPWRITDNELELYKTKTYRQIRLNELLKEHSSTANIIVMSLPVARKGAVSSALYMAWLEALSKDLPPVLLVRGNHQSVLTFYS
Method: as §1, §2

[13] = test system: cortical slices; settings: 7 mM ammonia in perfusate
Excerpt: as §3, §4

[14] = test system: astrocytes; settings: awake Otc^spf-ash mice, ammonia load
Method: Two-Photon Laser Scanning Microscopy (2PLSM)—A Mai Tai laser (SpectraPhysics) attached to a confocal scanning system (Fluoview 300, Olympus) and an upright microscope (IX51W) was used. Briefly, volume changes and calcium activity were imaged in cortex 100 μm below the pial surface, as described previously, using a 60× (1.1 NA) and a 20× (0.95 NA) lens, respectively. For in vivo volumetry xyzt image series were collected (z-step 1.5 μm, every 5 minutes) with acquisition time<20 seconds and laser power<40 mW. For in vivo calcium imaging, dual channel (rhod-2 and eGFP) frames were collected at 0.2 or 2 Hz. A low sampling rate and <20 mW laser were used to avoid photo damage. […] Therefore, each animal was tested for optimal loading by performing whisker stimulation, to verify a physiological calcium response. Wang et al., “Astrocytic Ca^2+ Signalling Evoked by Sensory Stimulation In Vivo,” Nat. Neurosci. 9:816-823 (2006), which is hereby incorporated by reference in its entirety. A calcium transient was defined as an event where the relative ratio between the rhod-2 and eGFP signal intensities (ΔF/F0) was >2 standard deviations […] from baseline. Beginning and end were defined as ΔF/F0>0.5 π and <0.5 π respectively. Amplitude was taken as the peak ΔF/F0 in this interval. […] Volume and calcium recordings were analyzed using previously described custom-made software (MatLab Inc.).

[15] = test system: Otc^spf-ash mice; assay: Survival after ammonia overdose (Cox regression); type: in vivo, mouse
Method: Where n≧10 for normally distributed data, the unpaired t test or ANOVA were used for independent samples, and paired t test for paired samples. Where n<10 non-parametric tests including Mann-Whitney U and Kruskall-Wallis were used for independent samples, and Wilcoxon signed ranks test for paired samples. Overdose survival was compared using Cox regression model (controlling for the confounding effect of mouse weight).
To test the validity of the present in situ model, awake animals were tested (FIG. 4A). […] To investigate whether this improvement of neuronal function translated into a clinically relevant improvement in disease phenotype, the phenotype measures outlined in FIGS. 1A-1I were employed.

[16] = during cortical KCl application (12.5 mM) ± bumetanide 5 μM
[17] = cortical superfusion (NH4Cl 10 mM, BUM 5 μM)
[18] = intraperitoneal injection (NH4Cl 7.5 mmol kg^−1, BUM 30 mg kg^−1)
[19] = after washout of cortical NH4Cl (± bumetanide)
[20] = during cortical NH4Cl application (10 mM) ± bumetanide 5 μM
[21] = Otc^spf-ash mice, ammonia 7.5 mmol kg^−1 i.p.
[22] = cortical NH4Cl (10 mM) ± bumetanide
[23] = systemic NH4Cl (7.5 mmol kg^−1) ± bumetanide

Row | Compound | Paired-pulse ratio (PPR) [1, 16] | Sensory-motor phenotype score (out of 11) [2] | [NH4^+]o [4, 17] | [NH4^+]o [4, 18] | Δ[K^+]o [4, 18] | Paired-pulse ratio (PPR) after washout [1, 19] | Paired-pulse ratio (PPR) [1, 20] | Spontaneous mouse movement [6] | Brain GABA [7, 21] | Brain Glutamate [7, 21] | Brain Glutamine [7, 21] | Brain GABA ([7]; WT mice) | Brain Glutamate ([7]; WT mice) | Brain Glutamine ([7]; WT mice) | ME frequency [9, 22] | ME frequency [9, 23] | also measured
1 | [Cl-].[K+] [KCl] | 1.48±0.22 | – | – | – | – | – | – | – | – | – | – | – | – | – | – | – | Paired-pulse ratio (PPR) after washout ([1]; after washout of cortical KCl): 0.63±0.14
2 | N [NH4Cl] | – | 9.00±0.46 | 5.82 ± 0.18 mM | 4.83 ± 0.52 mM | 1.93 ± 0.19 mM | 0.61±0.15 | 1.56±0.24 | 0.42±0.22 m min^−1 | 2.46 ± 0.13 μmol g^−1 wet weight | 13.24 ± 0.33 μmol g^−1 wet weight | 9.25 ± 0.34 μmol g^−1 wet weight | 2.19 ± 0.12 μmol g^−1 wet weight | 12.49 ± 0.15 μmol g^−1 wet weight | 8.69 ± 0.33 μmol g^−1 wet weight | 1.02±0.07 ME min^−1 | 2.66±0.14 ME min^−1 | Depolarization of EGABA ([3]; ammonia 7 mM in perfusate, pyramidal neurons, ramp voltage 0 to −120 mV): +12.33±3.66 mV; Δ[K^+]o ([4]; intraperitoneal injection (NH4Cl 7.5 mmol kg^−1, BUM 30 mg kg^−1), listed as ammonia): 1.93 ± 0.19 mM; Astrocyte calcium transient Freq. [5]: 9.03 ± 1.16 Hz cell^−1 × 10^−3; Astrocyte calcium transient Freq. ([5]; listed as ammonia): 9.03±1.16 Hz cell^−1 × 10^−3; Astrocyte calcium Cell-cell correlation ([5]; awake mice): 0.26 ± 0.08; Astrocyte calcium transient Amplitude (ΔF/F0) ([5]; awake mice): 0.47 ± 0.32; Astrocyte calcium transient Duration ([5]; awake mice): 21.51 ± 4.55 s; Astrocyte calcium Cell-cell correlation ([5]; awake mice, listed as ammonia): 0.26±0.08; Extracellular ammonia concentration in plasma [8]: 4.21 ± 0.59 mM; NKA activity with NH4Cl substituted for KCl ([10]; NH4Cl 15 mM, cell-free): able to maintain normal NKA activity; NKA-dependent (ouabain-sensitive) 86Rb^+ uptake ([10]; ammonia 0.5-10 mM, cultured astrocytes): dose-dependent reduction; Depolarizing effect on EGABA [11]: +1.00±1.07; Depolarizing effect on EGABA [12]: +11.14±1.22; Increase in [K^+]o [13]: 1.88 ± 0.13 mM; Increase in [NH4^+]o [13]: 3.67 ± 0.53 mM; Astrocyte swelling [14]: no significant astrocyte swelling; Transient astrocyte shrinkage [14]: 5.04±0.85%
3 | CCCCNc1cc(C(=O)O)cc(S(N)(=O)=O)c1Oc1ccccc1 [bumetanide] | 0.92±0.18 | 6.00±0.72 | 0.52 ± 0.11 mM | 0.42 ± 0.16 mM | 0.0073 ± 0.015 mM | 0.59±0.17 | 0.88±0.15 | 3.17±0.46 m min^−1 | 2.39 ± 0.13 μmol g^−1 wet weight | 14.27 ± 0.23 μmol g^−1 wet weight | 8.70 ± 1.54 μmol g^−1 wet weight | 2.55 ± 0.05 μmol g^−1 wet weight | 14.38 ± 0.22 μmol g^−1 wet weight | 4.52 ± 0.18 μmol g^−1 wet weight | 0.10±0.02 ME min^−1 | 0.32±0.02 ME min^−1 | Effect on ammonia-induced depolarization of EGABA ([3]; bumetanide 5 μM pre-incubation): successfully prevented; Survival after ammonia overdose increased by a factor ([15]; NH4Cl overdose 10 mmol kg^−1, Otc^spf-ash mice): 3.87; Hazard rate ratio ([15]; NH4Cl overdose 10 mmol kg^−1, 95% confidence interval 0.08 to 0.87): 0.26
